Assays:
[1] = system: U373MG cells; test: U373MG cell proliferation; type: cell-based, human
[2] = system: U118MG-Luc glioma tumors in nude mice; test: heterotopic (subcutaneous) U118MG-Luc xenograft, tumor growth; type: in vivo, human cells in mouse
Method: (§1) To address the biological consequences of MTP-PlexA1-mediated inhibition of PlexA1 we used the U118MG-Luc glioma cell line genetically engineered to express the luciferase reporter gene. […] Cells were then grafted subcutaneously and tumor growth was monitored every 5 days for a total period of 20 days. […] The quantitative analysis of the cumulated luminescent signal acquired all along the protocol confirmed the strong reduction of tumor development translating into a marked 75% reduction of the averaged luminescent signal at the end point (Figure 6C). […] However, responses were strong for 8 out of 10 mice with some responses close to 100%, all of them being at least Partial Response (PR) (Figure 6D). In order to clarify the mechanism by which MTP-PlexA1 is exerting tumor growth inhibition we collected tumors and analyzed them histologically.
(B) Representative photographs illustrating the kinetic of tumor growth over 20 days in the two experimental groups. (C) Cumulated growth curves of the tumors (UA: Arbitrary Unit). (D) Waterfall plot of best response representing the percent change in tumor volume of individual treated animals (grey bars, n = 10) compared to the average tumor volume increased determined in the control group (dark bars, n = 10). (E) Proximity ligation assay on tumor slices showing that MTP-PlexA1 (10^−7 M) decreases the number of PlexA1-NRP1 interactions in U118MG cells. (F) Representative microphotographs and related quantification of PH3 positive cells in tumor slices (G) Representative microphotographs and related quantification of CD31 positive regions in tumor slices (% CD31 per μm² of tumors).
Experiments were performed according to the Guide for Care and Use of Laboratory Animals (E67-6-482-21) and the European Directive with approval of the regional ethical committee (Reference AL/55/62/02/13). Heterotopic grafts were produced by injecting […] in the flank of pathogen-free NMRI nude mice (Janvier, Le Genest Saint Isle, France). Intraperitoneal administration of vehicle (LDS 72 μM) or MTP-PlexA1 treatment (10–7 M) were done every days during 20 days when the tumors reached a minimal volume of 100 mm3. For the experiment conducted with cancer stem cell line NCH644mCherry, we performed bilateral grafting of 10^6 cells on each flank of 20 nude mice without treatment or pre-incubated for 1 hour with MTP-PlexA1 at 10–7 M. After 5 days, the fluorescence emission of developing tumors was recorded using the NightOwl system (Berthold) using appropriate excitation and emission filters (580 nm/620 nm respectively).

[3] = system: Rac1; test: ELISA-based Rac1 activation assay in U373MG cells; type: cell-based, human
Method: (C) Rac-1 activation assay in resting condition and after Sema3A-induced Rac-1 activation in U373 MG cells. (D) Western blot analysis of phosphorylated Akt, total Akt and tubulin in U373MG cells treated with the vehicle (LDS 72 μM), Sema3A (100 ng/ml) or Sema3A + MTP-PlexA1 (10^−7 M). The lower panel is showing the quantification of the p-Akt/Akt ratio in the different conditions. (E) MTP-PlexA1 decreases VEGFR-2 phosphorylation induced by VEGF (100 ng/ml) in HUVEC cells.
PlexA1 is a Rho-GTPase activating protein. Consistently, it has been shown that in response to Sema3A, the Rho-GTPase Rac1 is activated and sequestered at the plasma membrane. […] Moreover, it has been shown that Sema3A inhibits Akt phosphorylation through binding of Rnd1 to PlexA1. […] From these experiments we concluded that MTP-PlexA1 is able to antagonize major signaling pathways of PlexA1 receptor.

[4] = system: GBM tumors grafted in brain of immunocompromised mice; test: orthotopic GBM graft in mouse brain; type: in vivo, human cells in mouse; settings: i.p., 1 μg/kg every 3 days for 3 weeks, 1.5 µg/kg 3 times per week
Method: as §1
Supplementary Figure S5: We performed an orthotropic grafting experiment to monitor the effect of MTP-PlexA1 on GBM tumors developing in their native microenvironment. All procedures using animals are submitted to the Animal Care and Use Committee of AL/54/61/02/13. Immunocompromised mice are anesthetized with isoflurane 3% (BAXTER), under 0.5 L O2, and received a subcutaneous injection of ketofen 1% 1.5 mL/Kg (MERIAL). The scalp is incised and 100 000 cells of the dissociated GBM biopsy were engrafted with a 2 µL Hamilton syringe (HARVARD APPARATUS; HAM-88400) mounted on a stereotaxic set up (HARVARD APPARATUS) to inject cells at the following coordinates from the bregma x: −2 mm; y: +1 mm; z: −3.5 mm at a speed of 0.66 µl/min, 5 minutes after the syringe introduction. […] Tumor volume is calculated by the addition of every partial volume: [V total = Σ partial volumes = Σ d1 × (S1 + S2)/2 + d2 x (S2 + S3)/2 + … + dn x […]]. […] The immunostaining procedure used to quantify proliferation and vascularization of the tumor is described in the method section.While not strongly impacting tumor volume (−14.5%, p = 0.54, Mann Whitney test) the intraperitoneal […]

[5] = subcutaneous U118MG-Luc, every day, 1 μg/kg, n = 10

TLPAIVGIGGGGGLLLLVIVAVLIAYKRK [MTP-PlexA1, synthetic transmembrane peptide mimicking the TMD of PlexA1]
U373MG cell proliferation, dose dependence [1]: dose-dependent reduction | change of U373MG cell proliferation, maximal effect ([1]; at 10–7 M, p < 0.0001, Mann Whitney): –25% | mice not responding to treatment (waterfall best response) [2, 5]: 2 out of 10 | mice with strong response, at least Partial Response (PR) [2, 5]: 8 out of 10 | reduction of averaged luminescent signal at the end point ([2]; subcutaneous U118MG-Luc, i.p. every day, 1 μg/kg, 20 days): 75% | best response, some animals ([2]; waterfall graph, percent change in tumor volume, individual animals): ~100% | Rac1 activity, Sema3A-induced ([3]; Sema3A-induced): significantly inhibited | Rac1 activity in the absence of ligand ([3]; resting condition): not affecting | change of tumor volume, orthotopic ([4]; n = 12, p = 0.54, Mann Whitney): −14.5% | change of PH3 positive cells, orthotopic ([4]; p = 0.0023): −38.3% | change of angiogenesis, orthotopic ([4]; p = 0.0378): −14.3%

Reference: PMC5295395, “Inhibition of PlexA1-mediated brain tumor growth and tumor-associated angiogenesis using a transmembrane domain targeting peptide” (Oncotarget, 2016)
